Assay results: ChEMBL document CHEMBL1201862, “PubChem BioAssay data set” (2004)
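Compound exposure: 48 hours, 5 concentrations, 96-well plates. GI50: concentration for 50% inhibition of growth.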 The source made the active and inactive calls. Rule as the data show it: active = GI50 up to about 1.1 µM and inactive = higher.

Legend:
Test in all cases: growth of human tumour cells (NCI), 48 h
[1] = system: K562
[2] = system: MCF7
[3] = system: OVCAR-3
[4] = system: DMS-114
[5] = system: SR
[6] = system: SK-MEL-5
[7] = system: HOP-62
[8] = system: NCI-H23
[9] = system: CCRF-CEM
[10] = system: SK-OV-3
[11] = system: OVCAR-5
[12] = system: SK-MEL-28
[13] = system: SF-539
[14] = system: HL-60
[15] = system: SK-MEL-2
[16] = system: CAKI-1
[17] = system: UACC-62
[18] = system: SNB-75
[19] = system: M14
[20] = system: MOLT-4
[21] = system: SNB-19
[22] = system: XF498
[23] = system: SN12C
[24] = system: EKVX
[25] = system: RPMI-8226
[26] = system: SNB-78
[27] = system: BT-549
[28] = system: RXF 393
[29] = system: HCT-15
[30] = system: DU-145
[31] = system: NCI/ADR-RES
[32] = system: OVCAR-4
[33] = system: HT-29
[34] = system: LOX IMVI
[35] = system: PC-3
[36] = system: NCI-H460
[37] = system: HCT-116
[38] = system: MDA-MB-435
[39] = system: COLO 205
[40] = system: SF-268
[41] = system: HOP-18
[42] = system: M19-MEL
[43] = system: Malme-3M
[44] = system: RXF 631
[45] = system: NCI-H226
[46] = system: HCC 2998
[47] = system: DMS-273
[48] = system: A498
[49] = system: DLD-1
[50] = system: TK-10
[51] = system: KM-20L2
[52] = system: ACHN
[53] = system: SF-295
[54] = system: A549
[55] = system: SW-620
[56] = system: 786-0
[57] = system: IGROV-1
[58] = system: UACC-257
[59] = system: LXFL 529
[60] = system: HOP-92
[61] = system: OVCAR-8
[62] = system: U-251
[63] = system: KM12
[64] = system: MDA-N
[65] = system: NCI-H522
[66] = system: UO-31

## O=C(NCCCCCCCCNC(=O)c1cccc2ccccc12)c1cccc2ccccc12
[1]
  GI50: > 100 µM (inactive)
[2]
  GI50: 71.4 µM (inactive)
[3]
  GI50: 16.7 µM (inactive)
[4]
  GI50: 42.6 µM (inactive)
[5]
  GI50: > 100 µM (inactive)
[6]
  GI50: > 92.9 µM (inactive)
[7]
  GI50: 4.07 µM (inactive)
[8]
  GI50: 23.6 µM (inactive)
[9]
  GI50: > 100 µM (inactive)
[10]
  GI50: 10.7 µM (inactive)
[11]
  GI50: > 100 µM (inactive)
[12]
  GI50: > 59 µM (inactive)
[13]
  GI50: 4.94 µM (inactive)
[14]
  GI50: > 100 µM (inactive)
[15]
  GI50: 37.2 µM (inactive)
[16]
  GI50: 18.2 µM (inactive)
[17]
  GI50: 21.2 µM (inactive)
[18]
  GI50: 4.61 µM (inactive)
[19]
  GI50: 34.4 µM (inactive)
[20]
  GI50: > 100 µM (inactive)
[21]
  GI50: 20.1 µM (inactive)
[22]
  GI50: 4.44 µM (inactive)
[23]
  GI50: 18.8 µM (inactive)
[24]
  GI50: 19.5 µM (inactive)
[25]
  GI50: > 100 µM (inactive)
[26]
  GI50: 13.4 µM (inactive)
[27]
  GI50: 39.6 µM (inactive)
[28]
  GI50: 2.25 µM (inactive)
[29]
  GI50: 97.5 µM
[30]
  GI50: > 100 µM (inactive)
[31]
  GI50: 28.3 µM (inactive)
[32]
  GI50: 4.01 µM (inactive)
[33]
  GI50: > 100 µM (inactive)
[34]
  GI50: > 77.8 µM (inactive)
[35]
  GI50: > 100 µM (inactive)
[36]
  GI50: 65.3 µM (inactive)
[37]
  GI50: 24.4 µM (inactive)
[38]
  GI50: > 100 µM (inactive)
[39]
  GI50: 55.1 µM (inactive)
[40]
  GI50: 9.93 µM (inactive)
[41]
  GI50: 21 µM (inactive)
[42]
  GI50: > 86.1 µM (inactive)
[43]
  GI50: 44.8 µM (inactive)
[44]
  GI50: 13.9 µM (inactive)
[45]
  GI50: 8.43 µM (inactive)
[46]
  GI50: > 95.7 µM (inactive)
[47]
  GI50: 52.8 µM (inactive)
[48]
  GI50: 17.1 µM (inactive)
[49]
  GI50: > 100 µM (inactive)
[50]
  GI50: 12.1 µM (inactive)
[51]
  GI50: > 100 µM (inactive)
[52]
  GI50: 17.1 µM (inactive)
[53]
  GI50: 12.4 µM (inactive)
[54]
  GI50: 34.2 µM (inactive)
[55]
  GI50: > 100 µM (inactive)
[56]
  GI50: 4.89 µM (inactive)
[57]
  GI50: 20.4 µM (inactive)
[58]
  GI50: > 93.1 µM (inactive)
[59]
  GI50: > 56.5 µM (inactive)
[60]
  GI50: 4.34 µM (inactive)
[61]
  GI50: 9.91 µM (inactive)
[62]
  GI50: 12.5 µM (inactive)
[63]
  GI50: > 100 µM (inactive)
[64]
  GI50: > 100 µM (inactive)
[65]
  GI50: 9.4 µM (inactive)
[66]
  GI50: 6.3 µM (inactive)
